Measured values reported in patent publication US20230390183A1, “METHOD FOR IMPROVING SKIN CONDITION BY CRASSOCEPHALUM RABENS EXTRACT” (Greenyn Biotechnology Co., Ltd, priority 2022, published 2023).

Tested on: skin (moisture, wrinkle, collagen density)
Test: Comparison of different functional components for skin-improving efficacy
Type: in vivo, human
Text: In addition to the Crassocephalum rabens extract of the present invention, some other commercially available materials were collected, including oral hyaluronic acid (for continuous use of 20 days), ceramide, and collagen (for continuous use of 6 weeks), to compare their effects in maintaining skin hydrated, reducing wrinkles, and increasing collagen.

Question: Which results are given for ceramide?
Answer: Moisture (%) (no duration of use printed): +2.7%; Wrinkle (%) (no duration of use printed): −5.8%

Question: Which “Moisture (%)” value (continuous use of 6 weeks) does the source give for collagen here?
Answer: +25.5%

Question: What about the “Wrinkle (%)” value (continuous use of 6 weeks) of the same substance?
Answer: No significant

Question: How did the “Moisture (%)” value (continuous use of 20 days) turn out when hyaluronic acid [Oral hyaluronic acid] was run?
Answer: +21.5%

Question: What about the “Wrinkle (%)” value (continuous use of 20 days) of the same substance?
Answer: −12.5%
